From patent publication US10689354B2, “Aminoazole derivative” (Teijin Pharma Limited, priority 2015, dated 2020) come the findings set out here.

Experiment [1] deals with T1, androgen receptor (AR-LBD) (Rattus norvegicus, UniProt P15207).
T1 construct: 5 μL of 2×AR-LBD/Fluoromone AL Red Complex contained in the kit; purchased Invitrogen
T1 sequence (P15207 651-882 limits assumed): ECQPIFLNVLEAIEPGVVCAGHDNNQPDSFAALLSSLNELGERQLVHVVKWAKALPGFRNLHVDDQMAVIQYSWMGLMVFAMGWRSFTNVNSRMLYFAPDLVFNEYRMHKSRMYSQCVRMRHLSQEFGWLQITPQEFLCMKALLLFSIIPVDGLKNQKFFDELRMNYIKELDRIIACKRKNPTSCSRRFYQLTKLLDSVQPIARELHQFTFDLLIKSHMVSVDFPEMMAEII
Briefly: Evaluation of androgen receptor affinity (PolarScreen Androgen Receptor Competitor Assay Kit, Red; fluorescence polarization). To be noted: 22° C. for 5 hours, relative to binding rate of 1 μM DHT, read-out: AR affinity (pEC50) (converted). The procedure, abridged: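 pEC50 values reflect tracer displacement from AR-LBD (Fluoromone AL Red complex) measured by fluorescence polarization after 5 h at 22° C, normalized to 1 μM DHT and fitted with a 4-parameter model.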
On the technique in general: Fluorescence polarisation rises when a labelled molecule tumbles more slowly, as on binding a larger partner.

The target of another experiment is T2, human androgen receptor (Homo sapiens, UniProt P10275).
T2 construct: expressed in transfected cells; host or cells: HEK293
T2 sequence (P10275 1-920): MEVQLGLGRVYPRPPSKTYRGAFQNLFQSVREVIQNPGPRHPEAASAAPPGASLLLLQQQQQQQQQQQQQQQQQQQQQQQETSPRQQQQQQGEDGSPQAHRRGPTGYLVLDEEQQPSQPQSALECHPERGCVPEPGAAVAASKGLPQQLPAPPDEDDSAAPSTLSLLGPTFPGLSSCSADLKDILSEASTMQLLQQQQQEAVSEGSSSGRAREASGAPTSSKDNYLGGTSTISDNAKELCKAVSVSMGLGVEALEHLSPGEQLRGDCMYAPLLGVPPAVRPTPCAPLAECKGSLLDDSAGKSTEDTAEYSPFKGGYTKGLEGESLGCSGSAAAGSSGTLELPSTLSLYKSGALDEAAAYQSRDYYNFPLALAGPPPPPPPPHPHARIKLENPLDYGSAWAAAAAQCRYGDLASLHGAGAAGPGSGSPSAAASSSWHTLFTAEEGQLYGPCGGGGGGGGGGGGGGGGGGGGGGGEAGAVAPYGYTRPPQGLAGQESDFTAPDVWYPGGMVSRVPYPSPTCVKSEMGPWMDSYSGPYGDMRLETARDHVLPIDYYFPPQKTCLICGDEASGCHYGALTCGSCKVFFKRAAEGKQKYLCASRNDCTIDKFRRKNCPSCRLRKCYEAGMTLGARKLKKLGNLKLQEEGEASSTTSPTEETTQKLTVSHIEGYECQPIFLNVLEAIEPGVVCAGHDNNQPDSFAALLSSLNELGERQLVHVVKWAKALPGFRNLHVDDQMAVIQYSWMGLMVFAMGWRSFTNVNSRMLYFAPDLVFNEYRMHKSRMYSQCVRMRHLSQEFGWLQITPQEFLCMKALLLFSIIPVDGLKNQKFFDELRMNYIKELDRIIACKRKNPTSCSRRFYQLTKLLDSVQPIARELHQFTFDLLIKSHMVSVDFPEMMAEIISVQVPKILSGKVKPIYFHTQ
In words: Reporter assay of an androgen receptor responsive sequence (luciferase, transiently transfected HEK293 cells). In kind it is cell-based. The settings on record: 24 hours incubation, relative to activity of 100 nM DHT, read-out: AR transcriptive activity (pEC50) (converted). Summed up: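 HEK293 cells transiently transfected for 3 h with ARE-firefly luciferase, full-length human AR and TK-Renilla plasmids, then exposed to compound for 24 h at 37 °C in 5% charcoal-treated FBS/DMEM. Dual-Glo luminescence read; pEC50 from 4-parameter fit relative to 100 nM DHT.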
A general note: In a reporter assay the amount or activity of a reporter protein is the signal.

In the case of `CS(=O)(=O)NC(=O)c1nc(N(Cc2ccc(F)cc2)c2ccc(C#N)cc2)sc1Br` [Example 244, 5-bromo-2-[4-cyano-N-[(4-fluorophenyl)methyl]anilino]-N-methylsulfonyl-thiazole-4-carboxamide], the EC50 in experiment [1] is 63.1 nM; on human androgen receptor, 39.8 nM.
The matching figures for `CS(=O)(=O)NC(=O)c1nc(N(Cc2cccc(Cl)c2)c2ccc(C#N)cc2)sc1Br` [Example 247, 5-bromo-2-[N-[(3-chlorophenyl)methyl]-4-cyano-anilino]-N-methylsulfonyl-thiazole-4-carboxamide]: 31.6 nM and 31.6 nM.
The matching figures for `CS(=O)(=O)NC(=O)c1nc(N(Cc2ccc(Cl)cc2)c2ccc(C#N)cc2)sc1Br` [Example 248, 5-bromo-2-[N-[(4-chlorophenyl)methyl]-4-cyano-anilino]-N-methylsulfonyl-thiazole-4-carboxamide]: 31.6 nM and 25.1 nM.
Taken in the same sequence, the figures for `CS(=O)(=O)NC(=O)c1nc(N(Cc2ccc(C(F)(F)F)cc2)c2ccc(C#N)cc2)sc1Br` [Example 251, 5-bromo-2-[4-cyano-N-[[4-(trifluoromethyl)phenyl]methyl]anilino]-N-methylsulfonyl-thiazole-4-carboxamide] were 39.8 nM and 25.1 nM.
`CS(=O)(=O)NC(=O)c1nc(N(Cc2cccc(OC(F)(F)F)c2)c2ccc(C#N)cc2)sc1Br` [Example 252, 5-bromo-2-[4-cyano-N-[[3-(trifluoromethoxy)phenyl]methyl]anilino]-N-methylsulfonyl-thiazole-4-carboxamide]: the EC50 in experiment [1] was 31.6 nM; on human androgen receptor, 79.4 nM.
Regarding `CS(=O)(=O)NC(=O)c1nc(N(Cc2ccc(OC(F)(F)F)cc2)c2ccc(C#N)cc2)sc1Br` [Example 253, 5-bromo-2-[4-cyano-N-[[4-(trifluoromethoxy)phenyl]methyl]anilino]-N-methylsulfonyl-thiazole-4-carboxamide], the EC50 is 31.6 nM in experiment [1] and 79.4 nM on human androgen receptor.
The matching figures for `CS(=O)(=O)NC(=O)c1nc(N(Cc2ccccc2OC(F)F)c2ccc(C#N)cc2)sc1Br` [Example 254, 5-bromo-2-[4-cyano-N-[[2-(difluoromethoxy)phenyl]methyl]anilino]-N-methylsulfonyl-thiazole-4-carboxamide]: 39.8 nM and 158 nM.
Taken in the same sequence, the figures for `CS(=O)(=O)NC(=O)c1nc(N(Cc2cccc(OC(F)F)c2)c2ccc(C#N)cc2)sc1Br` [Example 255, 5-bromo-2-[4-cyano-N-[[3-(difluoromethoxy)phenyl]methyl]anilino]-N-methylsulfonyl-thiazole-4-carboxamide] were 50.1 nM and 79.4 nM.
Taken in the same sequence, the figures for `CS(=O)(=O)NC(=O)c1nc(N(Cc2ccc(OC(F)F)cc2)c2ccc(C#N)cc2)sc1Br` [Example 256, 5-bromo-2-[4-cyano-N-[[4-(difluoromethoxy)phenyl]methyl]anilino]-N-methylsulfonyl-thiazole-4-carboxamide] were 50.1 nM and 50.1 nM.
In the case of `CS(=O)(=O)NC(=O)c1nc(N(Cc2ccccc2F)c2ccc(C#N)cc2)sc1Cl` [Example 257, 5-chloro-2-[4-cyano-N-[(2-fluorophenyl)methyl]anilino]-N-methylsulfonyl-thiazole-4-carboxamide], the values for the EC50 (in experiment [1]; on human androgen receptor) were 100 nM and 79.4 nM, respectively.
The matching figures for `CS(=O)(=O)NC(=O)c1nc(N(Cc2cccc(F)c2)c2ccc(C#N)cc2)sc1Cl` [Example 258, 5-chloro-2-[4-cyano-N-[(3-fluorophenyl)methyl]anilino]-N-methylsulfonyl-thiazole-4-carboxamide]: 63.1 nM and 100 nM.
The matching figures for `CS(=O)(=O)NC(=O)c1nc(N(Cc2ccc(F)cc2)c2ccc(C#N)cc2)sc1Cl` [Example 262, 5-chloro-2-[4-cyano-N-[(4-fluorophenyl)methyl]anilino]-N-methylsulfonyl-thiazole-4-carboxamide]: 50.1 nM and 39.8 nM.
